Data taken from ChEMBL document CHEMBL5050859, “Gpx4 inhibitors, pharmaceutical compositions thereof, and their use for treating gpx4-mediated diseases” (2021).

test system: Huh-7; assay: Antiproliferative activity against human Huh-7 cells after 24 hrs by Cell Titer Glo assay; type: functional, cell-based; conditions: Huh-7, 24 h

Point of comparison: `Nc1cccc(N(C(=O)CCl)C(C(=O)NCCc2ccccc2)c2cccs2)c1` (stereo not drawn), EC50 2000 nM. Against it:
- C#CC(=O)N(c1cccc(Cl)c1)C1(C(=O)NCc2ccccc2)CCOCC1 — lower, ≤ 100 nM
- C#CC(=O)N(c1cccc2cnn(C)c12)C(C(=O)NCc1ccccc1)c1ccccc1 (stereo not drawn) — lower, ≤ 100 nM
- C#CC(=O)N(c1cccc(F)c1)C(C(=O)NCc1ccccc1)c1ccc(N)cc1 (stereo not drawn) — 20-fold lower, 100 nM
- C=C(F)C(=O)N(c1ccc2c(cnn2C)c1)C1(C(=O)NCc2ccccc2)CCOCC1 — higher, > 10000 nM
- C#CC(=O)N(c1ccc2nsnc2c1)C(C(=O)NCc1ccccc1)c1ccccc1 (stereo not drawn) — lower, ≤ 100 nM
- C#CC(=O)N(c1ccc(OC)c(Cl)c1)C(C(=O)NCc1ccccc1)c1ccccc1 (stereo not drawn) — lower, ≤ 100 nM
- C#CC(=O)N(c1ccc(O)cc1)C(C(=O)NC(C)(C)C)c1ccc(N)cc1 (stereo not drawn) — higher, > 10000 nM
- C#CC(=O)N(c1cccc2c1CCC2=O)C(C(=O)NCc1ccccc1)c1ccccc1 (stereo not drawn) — lower, ≤ 100 nM
- C#CC(=O)N(c1cccc(Cl)c1)C(C(=O)NCc1ccccc1)c1ccc(N)cc1 (stereo not drawn) — lower, ≤ 100 nM
- C=C(F)C(=O)N(c1ccc(OC)c(Cl)c1)C(C(=O)NCc1ccccc1)c1cccc(N)c1 (stereo not drawn) — higher, > 10000 nM
- C#CC(=O)N(c1ccc(S(N)(=O)=O)cc1)C(C(=O)NC(C)(C)C)c1ccc(N)cc1 (stereo not drawn) — higher, > 10000 nM
- C#CC(=O)N(c1cc(Cl)ccc1I)C(C(=O)NCc1ccccc1)c1ccccc1 (stereo not drawn) — lower, ≤ 100 nM
- C#CC(=O)N(c1ccc(O)cc1)C(C(=O)NCc1ccccc1)c1ccc(N)cc1 (stereo not drawn) — the same, 2000 nM
- C#CC(=O)N(c1ccccc1N1CCOCC1)C1(C(=O)NCc2ccccc2)CCOCC1 — lower, ≤ 100 nM
- C=CC(=O)N(CCc1ccccc1)C1(C(=O)NCc2ccccc2)CCOCC1 — higher, > 10000 nM
- C#CC(=O)N(c1ccc(N(C)C)cc1)C1(C(=O)NCc2ccccc2)CCOCC1 — 20-fold lower, 100 nM
- C#CC(=O)N(c1cccc(Cl)c1)C(C(=O)NCc1ccccc1)c1ccncc1 (stereo not drawn) — 4-fold lower, 500 nM
- C#CC(=O)N(CCc1ccccc1)C1(C(=O)NCc2ccccc2)CCCC(C(=O)O)C1 (stereo not drawn) — higher, > 10000 nM
- C#CC(=O)N(c1cccc(Cl)c1)C1(C(=O)NCc2ccccc2)CCCC(O)C1 (stereo not drawn) — the same, 2000 nM
- C#CC(=O)N(c1cccc(NC(C)=O)c1)C(C(=O)NCc1ccccc1)c1cccc(N)c1 (stereo not drawn) — the same, 2000 nM
- C#CC(=O)N(c1cccc(Cl)c1)C(C(=O)NCc1ccccc1)C1CC1 (stereo not drawn) — 20-fold lower, 100 nM
- C#CC(=O)N(c1cccc(C(=O)OC)c1)C(C(=O)NCc1ccccc1)c1ccc(N)cc1 (stereo not drawn) — lower, ≤ 100 nM
- C#CC(=O)N(c1cccc(Cl)c1)C(C(=O)NCC1COC1)c1ccccc1 (stereo not drawn) — lower, ≤ 100 nM
- O=C(C#CCO)N(c1cccc(Cl)c1)C1(C(=O)NCc2ccccc2)CCOCC1 — higher, > 10000 nM
- C#CC(=O)N(c1ccc(CO)cc1)C(C(=O)NC(C)(C)C)c1ccc(N)cc1 (stereo not drawn) — the same, 2000 nM

test system: Huh-7; assay: Antiproliferative activity against human Huh-7 cells in presence of 1 uM ferrostatin-1 measured after 24 hrs by Cell Titer Glo assay; type: functional, cell-based; conditions: Huh-7, 24 h

`C#CC(=O)N(c1cccc(Cl)c1)C1(C(=O)NCc2ccccc2)CCOCC1` was tested, and the EC50 was over 10 µM.

test system: Huh-7; assay: Antiproliferative activity against human Huh-7 cells in presence of 1 uM liproxstatin-1 measured after 24 hrs by Cell Titer Glo assay; type: functional, cell-based; conditions: Huh-7, 24 h

`C#CC(=O)N(c1cccc(Cl)c1)C1(C(=O)NCc2ccccc2)CCOCC1` gave an EC50 of over 10 µM.
